Measurements from patent US11903926B1, “Non-hormonal treatment of hot flashes” (priority 2012, dated 2024).
Read-outs that look alike come from different tables or passages of the source.

Columns and labels:
[1] = test system: women with menopausal symptoms including hot flashes; settings: for benefit in sleep cycle: standard sedative hypnotics for insomnia; for hot flashes under existing medication: already treated for neuropathic pain and depression
Method: The patients were treated by escalating the dose of ropinirole to 4 mg, testing the hypothesis of a dopaminergically regulated pathway within the central nervous system which impacts hot flashes.
Therefore, the initial dose provided was 1 mg at bedtime, and the dose was raised as needed, every fourth day, to a maximum of 8 mg, if needed, usually at bedtime.
Safety monitoring included making certain there were no issues with liver function, low blood pressure or unusual dreams as this was accomplished. Tizanidine could, if needed, be dosed again during the night without causing a morning “hangover” effect providing there was a four hour sleep window available.
Ropinirole titration was initiated with 0.25 mg at bedtime, and if tolerated, by escalating the dose by 0.25 mg every fourth day to a maximum of 1 mg (i.e., 0.25 mg, 0.50 mg, 0.75 mg, 1 mg), until there was reduction in both the frequency and severity of hot flashes. If higher doses were needed, then both 1 mg, or later 2 mg and both 1 and 2 mg ropinirole tablets were used along with the continued titration by 0.25 mg steps every fourth day until a maximum of 4 mg was reached.

[2] = test system: women with dramatic vasomotor hot flashes and sleep disruption; assay: Clinical study of six women with vasomotor hot flashes and sleep disruption, symptoms graded 0-4; type: in vivo; settings: for Hot Flash Severity: grade 0-4 (duration), average of six women; for Hot Flash Frequency: end of treatment period (up to four weeks), ropinirole 4 mg, tizanidine 4 mg, clonidine 0.1 mg, rotigotine 1 mg, pramipexole 1.5 mg, chlorpromazine 25 mg, haloperidol 1 mg, venlafaxine 75 mg, paroxetine 20 mg, gabapentin 300 mg, pregabilin 50 mg; for effect on sleep (in words) / effect on vasomotor / hot flash symptoms (in words): six women, agent alone; for effect on vasomotor / hot flash symptoms (in words): versus untreated
Method: Patients were on each regimen at the doses cited for up to four weeks.
Symptoms were evaluated on a scale from 0 to 4, with 0 being not affected, 1 being mild, 2 being moderate, 3 being severe, and 4 being a very severe expression of either vasomotor symptom frequency, severity, sweating, falling asleep and waking during the night for each patient and evaluated at the end of the treatment period. The findings reported are based on an average of the reported symptoms of the six women studied.
Specifically, regarding hot flash frequency, evaluation was based upon the number of hot flashes per day. The frequency of hot flashes was graded on a scale of 0-4, with 0 as none detected, 1 as 1-4/day (mild), 2 as 5-8/day (moderate), 3 as 9-12/day (severe), and 4 as more than 12/day (very severe).
The severity of the hot flashes, reflecting hot flash duration, was also graded on a scale of 0-4, with 0 being not detected, 1 being mild (less than 1 minute), 2 moderate (1-2 minutes), 3 severe (2-3 minutes), and 4 very severe (greater than 4 minutes). This evaluation reflects the duration and intensity as rated by the individual.
The sweating response was graded on a scale of 0-4 as well, with 0 being not detected, 1 being mild (minimally moist skin), 2 moderate (moisture of the skin), 3 severe (noticeable perspiration, hair, ears, neck, chest), and 4 very severe (soaking sweat).
Falling asleep was also graded on a scale of 0-4, with 0 being no issue (less than 15 minutes), 1 being mild (15-20 minutes), 2 moderate (20-40 minutes), 3 severe (40-60 minutes), and 4 very severe (greater than 60 minutes).
Wakings were graded on a scale of 0-4 as well, with 0 being not detected, 1 being mild (1-5 wakings/night), 2 moderate (5-10 wakings/night), 3 severe (10-15 wakings/night), and 4 very severe (greater than 15 wakings/night).
The D2 receptor family (D2, D3 or D4) agonists ropinirole, rotigotine and pramipexole were examined, and contrasted with D2 receptor family antagonists chlorpromazine or haloperidol. Ropinirole and pramipexole were evaluated alone and with either alpha-2-adrenergic agonist tizanidine or clonidine.
Venlafaxine, paroxetine, gabapentin, and pregabilin were also evaluated in comparison with tizanidine.

[3] = test system: women with menopausal vasomotor symptoms and sleep disruption; assay: Clinical study of eight women with menopausal vasomotor symptoms and sleep disruption, symptoms graded 1-4; type: in vivo; settings: for effect on vasomotor symptoms (in words) / effect on sleep (in words): eight women; for effect on sleep (in words): agent alone; for Hot Flash Frequency / Sweating / Wakings / Falling Asleep / Hot Flash Severity: grade 1-4, average of eight women, ropinirole 4 mg, tizanidine 4 mg, ramelteon 8 mg; for Hot Flash Frequency: at bedtime for at least four weeks; for Hot Flash Frequency / Falling Asleep / Hot Flash Severity: untreated = 4; for Sweating / Wakings / Falling Asleep / Hot Flash Severity: at least four weeks; for Sweating / Wakings: untreated = 3
Method: Patients were on each regimen at the doses cited for at least four weeks.
Symptoms were evaluated on a scale from 1 to 4, with 1 being mild, 2 being moderate, 3 being severe, and 4 being a very severe expression of either vasomotor symptom frequency, severity, sweating, falling asleep and wakings during the night were evaluated for each patient and evaluate at the end of the treatment period. The findings were based on an average of the reported symptoms of the eight women studied.
Specifically with respect to hot flash frequency, evaluation was based upon the number of hot flashes per day. The frequency of the hot flashes was graded on a scale of 1-4, with 1 as 1-4/day (mild), 2 as 5-8/day (moderate), 3 as 9-12/day (severe), and 4 as more than 12/day (very severe).
The severity of the hot flashes was graded on a scale of 1-4, with 1 being mild (less than 1 minute), 2 moderate (1-2 minutes), 3 severe (2-3 minutes), and 4 very severe (greater than 4 minutes). This evaluation reflects the duration and intensity as rated by the individual.
The sweating response was graded on a scale of 1-4, with 1 being mild (minimally moist skin), 2 moderate (moisture on skin), 3 severe (noticeable perspiration, hair, ears, neck, chest), and 4 very severe (soaking sweat).
Falling asleep was graded on a scale of 1-4, with 1 being mild (15-20 minutes), 2 moderate (20-40 minutes), 3 severe (40-60 minutes), and 4 very severe (greater than 60 minutes).
Wakings were graded on a scale of 1-4, with 1 being mild (1-5 wakings/night), 2 moderate (5-10 wakings/night), 3 severe (10-15 wakings/night), and 4 very severe (greater than 15 wakings/night).

[4] = test system: hot flashes, including vasomotor symptoms of menopause; assay: Observed activity of D2 family agonists tested in controlling hot flashes; type: in vivo; settings: D2 family members tested to date
[5] = up to four weeks, untreated = 3
[6] = grade 0-4, average of six women, untreated = 3
[7] = patients of the case studies, ropinirole escalated from 0.25 mg to 4 mg at bedtime

CCN(C(C)=O)c1cccc(-c2ccnc3c(C#N)cnn23)c1 [zaleplon]
benefit in sleep cycle ([1]; patient three): no significant benefit in sleep cycle

CCCN[C@H]1CCc2nc(N)sc2C1 [Pramipexole]
Hot Flash Severity [2, 5]: 0 | Hot Flash Frequency [2, 6]: 0

Cc1ccc(-c2nc3ccc(C)cn3c2CC(=O)N(C)C)cc1 [zolpidem]
benefit in sleep cycle ([1]; patient three): no significant benefit in sleep cycle

O=C1CN=C(c2ccccc2Cl)c2cc([N+](=O)[O-])ccc2N1 [clonazepam]
benefit in sleep cycle ([1]; patient three): no significant benefit in sleep cycle

Clc1ccc2nsnc2c1NC1=NCCN1 [Tizanidine, tizanidine]
effect on vasomotor symptoms (in words) [3]: very modest reduction in vasomotor symptoms | effect on sleep (in words) [3]: more impressive effect on sleep | Hot Flash Frequency [3]: 3 (3 as 9-12/day (severe)) | Sweating [3]: 3 | Wakings [3]: 2 (2 moderate (5-10 wakings/night)) | Falling Asleep [3]: 2 (2 moderate (20-40 minutes)) | Hot Flash Severity [3]: 3 (3 severe (2-3 minutes)) | sleep ([1]; patient one, tizanidine 8 mg at bedtime): facilitate sleep, which it did | sleep ([1]; patient three, tizanidine 1 mg raised up to 8 mg at bedtime): able to sleep through the night | effect on sleep (in words) [2]: impressive effect on sleep | effect on vasomotor / hot flash symptoms (in words) [2]: very modest reduction in vasomotor symptoms

CC(C)(C#N)c1cc(Cn2cncn2)cc(C(C)(C)C#N)c1 [anastrozole]
effect on hot flashes (side effect of aromatase inhibitor) ([1]; patient three, anastrozole 1 mg daily): exacerbated the hot flashes

COc1ccc(C(CN(C)C)C2(O)CCCCC2)cc1 (stereo not shown) [Venlafaxine]
hot flashes under existing medication ([1]; patient two): developed these hot flash symptoms despite those medications | effect on vasomotor / hot flash symptoms (in words) [2]: reduced hot flash symptoms over untreated patients

CCCN(CCc1cccs1)[C@H]1CCc2c(O)cccc2C1 [Rotigitine, rotigotine]
activity in controlling hot flashes [4]: unique activity | Hot Flash Severity [2, 5]: 0 | Hot Flash Frequency [2, 6]: 0 | Falling Asleep ([2]; grade 0-4, average of six women, up to four weeks, untreated = 2): 0 (0 being no issue (less than 15 minutes)) | Sweating ([2]; grade 0-4, average of six women, up to four weeks, untreated = 3): 0 | Wakings ([2]; grade 0-4, average of six women, up to four weeks, untreated = 4): 1 (1 being mild (1-5 wakings/night)) | effect on sleep (in words) [2]: limited impact on sleep | effect on vasomotor / hot flash symptoms (in words) [2]: notable reduction in frequency and severity of vasomotor symptoms

O=C(CCCN1CCC(O)(c2ccc(Cl)cc2)CC1)c1ccc(F)cc1 [Haloperidol, haloperidol]
effect on vasomotor / hot flash symptoms (in words) [2]: aggravated menopausal symptoms

CCC(=O)NCC[C@@H]1CCc2ccc3c(c21)CCO3 [Ramelteon, ramelteon]
effect on vasomotor symptoms (in words) [3]: no impact on vasomotor symptoms | effect on sleep (in words) [3]: only a limited impact on sleep | Hot Flash Frequency [3]: 4 (4 as more than 12/day (very severe)) | Sweating [3]: 3 | Wakings [3]: 3 (3 severe (10-15 wakings/night)) | Falling Asleep [3]: 3 (3 severe (40-60 minutes)) | Hot Flash Severity [3]: 4 (4 very severe (greater than 4 minutes))

Clc1cccc(Cl)c1N=C1NCCN1 [Clonidine, clonidine]
hot flashes under existing medication ([1]; patient two): developed these hot flash symptoms despite those medications | effect on sleep (in words) [2]: impressive effect on sleep | effect on vasomotor / hot flash symptoms (in words) [2]: very modest reduction in vasomotor symptoms

CC(C)C[C@H](CN)CC(=O)O [Pregabilin, pregabalin]
effect on vasomotor / hot flash symptoms (in words) [2]: reduced hot flash symptoms over untreated patients

NCC1(CC(=O)O)CCCCC1 [Gabapentin, gabapentin]
hot flashes under existing medication ([1]; patient two): developed these hot flash symptoms despite those medications | effect on vasomotor / hot flash symptoms (in words) [2]: reduced hot flash symptoms over untreated patients

c1cnc(N2CCN(Cc3ccc4c(c3)OCO4)CC2)nc1 [piribedil]
activity in controlling hot flashes [4]: unique activity

Fc1ccc([C@@H]2CCNC[C@H]2COc2ccc3c(c2)OCO3)cc1 [Paroxetine, paroxetine]
effect on vasomotor / hot flash symptoms (in words) [2]: reduced hot flash symptoms over untreated patients

CN1C(=O)C(O)N=C(c2ccccc2)c2cc(Cl)ccc21 (stereo not shown) [temazepam]
benefit in sleep cycle ([1]; patient three): no significant benefit in sleep cycle

CN(C)CCCN1c2ccccc2Sc2ccc(Cl)cc21 [Chlorpromazine, chlorpromazine]
effect on vasomotor / hot flash symptoms (in words) [2]: aggravated menopausal symptoms

CCCN(CCC)CCc1cccc2c1CC(=O)N2 [Ropinirole, ropinirole]
effect on vasomotor symptoms (in words) [3]: notable, but incomplete reduction in frequency and severity of vasomotor symptoms | effect on sleep (in words) [3]: limited impact on sleep | Hot Flash Frequency [3]: 1 (1 as 1-4/day (mild)) | Sweating [3]: 1 | Wakings [3]: 3 (3 severe (10-15 wakings/night)) | Falling Asleep [3]: 3 (3 severe (40-60 minutes)) | Hot Flash Severity [3]: 1 (1 being mild (less than 1 minute)) | activity in controlling hot flashes [4]: unique activity | side effects ([1]; patient one, ropinirole 4 mg daily at bedtime with tizanidine 8 mg): without side effects | vasomotor symptoms (hot flashes) ([1]; patient one, ropinirole 4 mg daily at bedtime with tizanidine 8 mg at bedtime, 15-20 hot flashes per day before): totally eliminated the vasomotor symptoms (hot flashes) | hot flashes on re-administration after removal ([1]; patient three, ropinirole removed (symptoms returned) and re-administered at 4 mg): the hot flashes once again disappeared | side effects ([1]; patient two, ropinirole 4 mg at bedtime with tizanidine 8 mg): without untoward side effects | frequency and severity of hot flashes ([1]; patient two, ropinirole 4 mg at bedtime with tizanidine 8 mg at bedtime, 10-15 hot flashes per day before): complete resolution of the frequency and severity of the hot flashes | effect on hot flashes of menopause [1, 7]: dramatic shutdown of previously intolerable hot flashes of menopause | side effects [1, 7]: without side effects | Hot Flash Severity [2, 5]: 0 | Hot Flash Frequency [2, 6]: 0 | effect on sleep (in words) [2]: limited impact on sleep | effect on vasomotor / hot flash symptoms (in words) [2]: notable reduction in frequency and severity of vasomotor symptoms
